How the values were obtained:
[1] = Stability test (visual inspection of colour in the dark and under ambient light); type: physicochemical; details: precipitated product
Method: After this time, a visual inspection of the products was carried out and the products were protected in the dark again. After 12 hours, another visual inspection of the products was carried out. The products were then exposed to ambient light. After 5 hours, a visual inspection of the products was carried out.

E. Coli = test: Test of antimicrobial activity (halo diameter on plate); type: cell-based; design: unit not given here; details: chondroitin sulfate products 10% w/v, hyaluronic acid products 1.4% w/v in water
From the text: (§1) The objective of the test was to verify the antimicrobial activity with the microorganisms E. Coli and S. Aureus. For this purpose, solutions in water of the following products were separately prepared: • Commercially available sodium chondroitin sulfate of marine origin having a molecular weight between 25,000 and 40,000 Daltons. Product described in European Pharmacopeia (01/2009:2064) (comparative example 10); • High molecular weight silver chondroitin sulfate (comparative example 8); • Partially depolymerized silver chondroitin sulfate (example 1); • High molecular weight silver hyaluronate (comparative example 9); • Partially depolymerized silver hyaluronate (example 2); • AgNO3 (comparative example 11); • Partially depolymerized gold chondroitin sulfate (example 3); • Partially depolymerized gold hyaluronate (example 4); and • Mixture of 1 g of commercially available sodium chondroitin sulfate of marine origin having a molecular weight between 25,000 and 40,000 Daltons and 0.1 g of AgNO3 (comparative example 12).
(§2) The products derived from chondroitin sulfate were dissolved at 10% (weight/volume). The products derived from hyaluronic acid were dissolved at 1.4% (weight/volume). For the rest of products water was added until complete dissolution.
(§3) Each of the products was applied, as well as a control (water), to a plate with S. Aureus and E. Coli. The products were incubated under standard conditions for S. Aureus and E. Coli. The results were expressed in areolar or halo diameter and were the following: for the comparative example 10 it was 0 in E. Coli and 0 in S. Aureus; for the comparative example 8 it was 7 in E. Coli and 8 in S. Aureus; for the example 1 it was 7 in E. Coli and 6 in S. Aureus; for the comparative example 9 it was 8 in E. Coli and 8 in S. Aureus; for the example 2 it was 7 in E. Coli and 6 in S. Aureus; for the comparative example 11 it was 8 in E. Coli and 6 in S. Aureus; for the example 3 it was 9 in E. Coli and 8 in S. Aureus; for the control it was 0 in E. Coli and 0 in S. Aureus; for the example 4 it was 4 in E. Coli and 6 in S. Aureus; and for the comparative example 12 it was 7 in E. Coli and 5 in S. Aureus.

S. Aureus = test: as above; type: cell-based; design: unit not given here; details: chondroitin sulfate products 10% w/v, hyaluronic acid products 1.4% w/v in water
From the text: as §1, §2, §3

[2] = Viscosity test (dissolution time, appearance, displacement time); type: physicochemical; details: 0.01 g in 0.5 mL water, tube inverted (180° rotation)
From the text: The objective of the test was to verify that the viscosity of the partially depolymerized products obtained is lower than the viscosity of the starting products (non-depolymerized). The products assessed were the following: • High molecular weight silver chondroitin sulfate (comparative example 8); • Partially depolymerized silver chondroitin sulfate (example 1); • High molecular weight silver hyaluronate (comparative example 9) and • Partially depolymerized silver hyaluronate (example 2).
The following parameters were assessed: dissolution time, appearance (visual method) and displacement time.
0.01 g of each product was dissolved separately in 0.5 mL of distilled water in test tubes of 11.5 cm of length and 1 cm of diameter. Once the products were completely dissolved, the position of the tubes was inverted to check the displacement time.

[3] = Preliminary test of toxicology (topical): side effects by visual inspection; type: in vivo
Method: (§4) The aim of this test was to assess the toxicity (topical) and effectiveness in burns. The side effects that the different products could cause including irritation, inflammation and/or darkening were assessed by visual inspection and photographs. The products assessed were the following: • Commercially available sodium chondroitin sulfate of marine origin having a molecular weight between 25,000 and 40,000 Daltons. Product described in European Pharmacopeia (01/2009:2064) (comparative example 10); • Partially depolymerized silver chondroitin sulfate (example 1); • Partially depolymerized silver chondroitin sulfate dissolved/mixed in a moisturizing cream (example 1c); • Partially depolymerized silver hyaluronate (example 2); • AgNO3 (comparative example 11); and • Partially depolymerized gold chondroitin sulfate (example 3).
(§5) The products derived from chondroitin sulfate were dissolved in water at 10% (weight/volume). The products derived from hyaluronic acid were dissolved at 1.4% (weight/volume). For the silver nitrate water was added until complete dissolution. The product of example 1c was mixed with a moisturizing cream.
All the products were applied in the “upper area of the arm” (upper biceps) and in the abdomen (area of the ribs). The products of examples 1, 2 and 3 were also applied in the “lower area of the arm”. The visual inspections were carried out with the following frequency after the application: 10 minutes, 30 minutes, 60 minutes, 8 h, 3 days, 4 days, 7 days and 9 days.
The treated areas were exposed to different types of light (solar, incandescent bulb, fluorescent) for 10 minutes. Darkening was not observed in any case. The abdomen was protected from the light after 10 minutes. The “upper area of the arm” was left under light exposure up to 8 hours. The “lower area of the arm” had continuous exposure to ambient light.

[4] = Preliminary test of effectiveness in burns; type: in vivo; details: for efficacy in skin surfaces with burns or wounds: overall conclusion
Method: as §4, §5
In the application of the product of the comparative example 11 irritation was observed both in the “upper area of the arm” and in the abdomen at 10 minutes and at 30 minutes. […] At this moment, the product of example 1 was applied to the burn of the abdomen. 2 daily applications of the product of example 1 were done to the burn during the next 3 days. […] At this moment, the product of example 2 was applied to the burn of the “upper area of the arm”. 3 daily applications of the product of example 2 were done to the burn.

[5] = Acute oral toxicology test (OECD Guideline No. 420, fixed dose); type: in vivo; design: median lethal oral dose (LD50): unit not given here
Method: An acute oral toxicology test of partially depolymerized silver chondroitin sulfate (example 1) was carried out to assess the oral toxicity and identify the corresponding classification (GHS, Globally Harmonised Classification System for Chemical Substances and Mixtures). The study was conducted according to the OECD Guideline No. 420 (fixed dose).

[6] = Absorption test on cellulose paper; type: physicochemical
Method: A comparative test of the absorption of the depolymerized compounds of the invention and the non-depolymerized compounds was carried out. To do this, partially depolymerized silver chondroitin sulfate (example 1) and high molecular weight silver chondroitin sulfate (comparative example 8) were dissolved separately with water at the same concentration (10% by weight/volume). Once the products were completely dissolved it was noted that the viscosity of the product of example 1 was lower than that of the product of the comparative example 8. 10 mL of each product were applied on cellulose paper.

[7] = after 5 hours of exposure to ambient light

| Compound | color (visual inspection) ([1]; after 1 hour in the dark) | color (visual inspection) [1, 7] | color (visual inspection) ([1]; after 12 hours in the dark) | areolar or halo diameter (E. Coli) | areolar or halo diameter (S. Aureus) | displacement time [2] [s] | further results |
| --- | --- | --- | --- | --- | --- | --- | --- |
| Partially Depolymerized Ssilver Chondroitin Sulfate (Bleaching Agent: Sodium Metabisulfite) [comparative example 5] | reddish | black | reddish to black | – | – | – | – |
| High Molecular Weight Silver Chondroitin Sulfate [comparative example 8] | white | dark red | white | 7 | 8 | 30 | – |
| O=[N+]([O-])[O-].[Ag+] [comparative example 11, AgNO3] | – | – | – | 8 | 6 | – | side effects by visual inspection ([3]; topical, after 8 hours): irritation, itching, burning and a halo or aureole; side effects by visual inspection ([3]; topical, after the third day): increase of the diameter of the aureole of the burn; side effects by visual inspection ([3]; topical, parts where product was applied, after 60 minutes): irritation, itching and burning; side effects by visual inspection ([3]; topical, upper area of the arm and abdomen, at 10 minutes and at 30 minutes): irritation; side effects by visual inspection ([3]; topical, upper area of the arm, after the fourth day): increase of the diameter of the aureole of the burn; side effects by visual inspection ([3]; topical, upper area of the arm, after the seventh day): diameter of the aureole of the burn increased |
| Partially Depolymerized Gold Chondroitin Sulfate [example 3] | – | – | – | 9 | 8 | – | problems of darkening, irritation, itching or inflammation ([3]; in vivo): did not have problems of darkening, irritation, itching or inflammation; side effects by visual inspection ([3]; in vivo): no relevant behavior |
| Partially Depolymerized Silver Chondroitin Sulfate (Without Bleaching Step) [comparative example 7] | white | dark red | white | – | – | – | – |
| Partially Depolymerized Silver Chondroitin Sulfate [example 1] | white | white | white | 7 | 6 | 1 | side effects by visual inspection ([3]; topical, all areas applied, all inspections from 10 minutes to 9 days): no relevant behavior; problems of darkening, irritation, itching or inflammation ([3]; topical, overall conclusion, unlike silver nitrate): did not have problems of darkening, irritation, itching or inflammation; efficacy in skin surfaces with burns or wounds [4]: produce an improvement; burn healing (visual) ([4]; silver nitrate burn of the abdomen, 2 daily applications from third day, observed after the fourth day): nearly full disappearance of the burn; GHS classification ([5]; Globally Harmonised Classification System): 5; median lethal oral dose (LD50) ([5]; OECD Guideline No. 420 fixed dose): > 2000; viscosity relative to comparative example 8 ([6]; 10% by weight/volume in water): lower; absorption on cellulose paper relative to comparative example 8 ([6]; 10 mL of 10% w/v solution applied on cellulose paper): absorbed more rapidly |
| High Molecular Weight Silver Hyaluronate [comparative example 9] | – | – | – | 8 | 8 | 300 | – |
| Partially Depolymerized Silver Hyaluronate [example 2] | – | – | – | 7 | 6 | 1 | problems of darkening, irritation, itching or inflammation ([3]; in vivo): did not have problems of darkening, irritation, itching or inflammation; side effects by visual inspection ([3]; in vivo): no relevant behavior; efficacy in skin surfaces with burns or wounds [4]: produce an improvement; burn healing (visual) ([4]; silver nitrate burn of the upper area of the arm, 3 daily applications from seventh day, observed after the ninth day): almost completely disappeared |
| Partially Depolymerized Gold Hyaluronate [example 4] | – | – | – | 4 | 6 | – | – |
| sodium chondroitin sulfate [comparative example 10] | – | – | – | 0 | 0 | – | – |
